“And” between values parts separate entries of the source, which are not always exact repeats. Equal entries are not always repeated. “Also recorded” adds a separate entry of the source. Structures can show the parent of a compound that is named as a salt.

A short description of series [1]: Intrinsic dissolution rate (IDR). The note with it: for IDR (in words): ranking among TAR Pattern 1, SUC Pattern 3, BEN Pattern 1. The class given is physicochemical.
A further series is described as follows: GVS (hygroscopicity). The class given is physicochemical.
Series [2] is described as follows: Solubility of psilocin salts in saline. As to conditions: for XRPD of Residue: solid residue after 5 hours in saline; for Solubility (in words): comparison among forms or with freeform.
Series [3] can be described thus: Static storage for 7 days at 40° C./75% RH (XRPD and HPLC). The note with it: for Static Storage 40° C./75% RH: HPLC: HPLC purity after 7 days at 40° C. and 75% relative humidity; for Static Storage 40° C./75% RH: XRPD: XRPD pattern after 7 days at 40° C. and 75% relative humidity.
The mark [4] stands for this setting: Table 9, saturated solution in saline, 25° C., 5 hours.

Take `CN(C)CCc1c[nH]c2cccc(O)c12.O=C(O)c1ccccc1` [BEN Pattern 1, Psilocin benzoate]: in series [1], the IDR is reported as 0.4 mg/min/cm2 and the “IDR (in words)” value is reported as “lowest”. In the series “GVS (hygroscopicity)”, the “GVS hygroscopicity (in words)” value is “Non-hygroscopic” and the “GVS reversible mass change between 0-90% RH” value was “Reversible 0.25%”. In series [2] (Table 9, saturated solution in saline, 25° C., 5 hours, listed as Psilocin benzoate BEN Pattern 1), the “pH at 5 hrs” value was 6.8 and 6.9. The “XRPD of Residue” value in series [2] (Table 9) is reported as “BEN Pattern 1”. In series [2] (Table 10 (updated), saline, listed as Psilocin benzoate BEN Pattern 1), the “pH at 5 hrs” value was 6.8 and 6.9. For the same molecule, the “Solubility (in words)” value in series [2] (saline) is recorded as “substantial increases in solubility compared with the freeform; also recorded: lowest solubility”. The “Solubility in Saline” value in series [2] (summary Table 4, saline, 25° C., 5 hours) was determined as 5.0 mg/mL. Besides, in series [3], the “Static Storage 40° C./75% RH: HPLC” value is “HPLC- 99.0%” and the “Static Storage 40° C./75% RH: XRPD” value is given as “BEN Pattern 1”.
Take `CN(C)CCc1c[nH]c2cccc(O)c12.O=S(=O)(O)c1cccc2c(S(=O)(=O)O)cccc12` [Psilocin 1,5-napthalenedisulfonate NAP Pattern 1]: the “pH at 5 hrs” value in series [2] (setting [4]) came out at 2.0. The “XRPD of Residue” value in series [2] (Table 9) was “NAP Pattern 1”. Moreover, the “pH at 5 hrs” value in series [2] (Table 10 (updated), saline) is on record as 2.0. Moreover, the “Solubility (in words)” value in series [2] (saline) is “substantial increases in solubility compared with the freeform”. For the same molecule, in series [3], the “Static Storage 40° C./75% RH: HPLC” value is listed as “HPLC- 97.2%” and the “Static Storage 40° C./75% RH: XRPD” value was “NAP Pattern 1”.
As to `CN(C)CCc1c[nH]c2cccc(O)c12.O=S(=O)(O)c1cccc2c(S(=O)(=O)O)cccc12` [Psilocin 1,5-napthalenedisulfonate NAP Pattern 2], in series [3], the “Static Storage 40° C./75% RH: HPLC” value is on record as “HPLC - 99.2%” and the “Static Storage 40° C./75% RH: XRPD” value is recorded as “NAP Pattern 1”.
As to `CN(C)CCc1c[nH]c2cccc(O)c12` [Psilocin free base, Psilocin, reference compound], the IDR entry in series [1] is “[Freeform = 0.09] mg/min/cm2”. The “pH at 5 hrs” value in series [2] (setting [4]) is 9.8 and 9.9; in series [2] (Table 10 (updated), saline) it was 9.8 and 9.9. Also, the “XRPD of Residue” value in series [2] (Table 9) is listed as “Freeform Pattern 1”.
`CN(C)CCc1c[nH]c2cccc(O)c12` [Psilocin hydrochloride HCl Pattern 1, Psilocin hydrochloride]: the “pH at 5 hrs” value in series [2] (Table 9, saturated solution in saline, 25° C., 5 hours, hydrochloride) was 6.0 and 6.1; in series [2] (Table 10 (updated), saline, hydrochloride), 4.0 and 5.4.
For `CCC(=O)O.CN(C)CCc1c[nH]c2cccc(O)c12` [Psilocin propionate PRO Pattern 1, Psilocin propionate], in series [3], the “Static Storage 40° C./75% RH: HPLC” value is on record as “HPLC- 99.4%” and the “Static Storage 40° C./75% RH: XRPD” value is recorded as “PRO Pattern”.
With `CN(C)CCc1c[nH]c2cccc(O)c12.O=C(O)c1ccccc1O` [Psilocin salicylate SAL Pattern 1, Psilocin salicylate], the “pH at 5 hrs” value in series [2] (setting [4]) is 4.2. Moreover, the “XRPD of Residue” value in series [2] (Table 9) is “SAL Pattern 1”. For the same molecule, the “pH at 5 hrs” value in series [2] (Table 10 (updated), saline) amounted to 4.2. Moreover, in series [2] (saline), the “Solubility (in words)” value is recorded as “substantial increases in solubility compared with the freeform”. For the same molecule, in series [3], the “Static Storage 40° C./75% RH: HPLC” value is reported as “HPLC- 99.1%” and the “Static Storage 40° C./75% RH: XRPD” value is recorded as “SAL Pattern”.
`CN(C)CCc1c[nH]c2cccc(O)c12.O=C(O)c1ccccc1O` [Psilocin salicylate SAL Pattern 2, Psilocin salicylate]: in series [3], the “Static Storage 40° C./75% RH: HPLC” value is listed as “HPLC- 99.8%” and the “Static Storage 40° C./75% RH: XRPD” value is listed as “SAL Pattern 2 +”.
Taken in the same sequence, the figures for “Psilocin acetate [Psilocin acetate ACE Pattern 1]” were “HPLC - 75.2%” and “ACE Pattern 1 +”.
With “Psilocin acetate [Psilocin acetate ACE Pattern 2]”, in series [3], the “Static Storage 40° C./75% RH: HPLC” value is given as “HPLC- 83.4%” and the “Static Storage 40° C./75% RH: XRPD” value was “ACE Pattern 3”.
The matching figures for “Psilocin adipate [Psilocin adipate ADI Pattern 1]”: “HPLC- 98.4%” and “ADI Pattern 1 +”.
The matching figures for “Psilocin adipate [Psilocin adipate ADI Pattern 2]”: “HPLC- 98.1%” and “ADI Pattern 3”.
Consider “Psilocin fumarate [Psilocin fumarate FUM Pattern 1]”, for which, in series [3], the “Static Storage 40° C./75% RH: XRPD” value is recorded as “FUM Pattern 3; also recorded: FUM Pattern 4”.
On to “Psilocin oxalate [Psilocin oxalate OX Pattern 1]”, for which, in series [3], the “Static Storage 40° C./75% RH: HPLC” value is listed as “HPLC- 94.4%” and the “Static Storage 40° C./75% RH: XRPD” value is given as “OX Pattern 3”.
Take “Psilocin oxalate [Psilocin oxalate OX Pattern 2]”: in series [3], the “Static Storage 40° C./75% RH: HPLC” value was “HPLC- 97.1%” and the “Static Storage 40° C./75% RH: XRPD” value is reported as “OX Pattern 3 +”.
As to “Psilocin pamoate [Psilocin pamoate PAM Pattern 1]”, in series [3], the “Static Storage 40° C./75% RH: HPLC” value was “HPLC- 99.6%” and the “Static Storage 40° C./75% RH: XRPD” value is recorded as “PAM Pattern 1”.
Taken in the same sequence, the figures for “Psilocin phosphate [Psilocin phosphate PHO Pattern 1]” were “HPLC - 93.9%” and “PHO Pattern 2”.
As to Psilocin succinate, the “Static Storage 40° C./75% RH: XRPD” value in series [3] is “SUC Pattern 5”.
Take Psilocin succinate [SUC Pattern 3]: in series [1], the IDR is 12.4 mg/min/cm2 and the “IDR (in words)” value is “highest IDR”. For the same molecule, the “GVS hygroscopicity (in words)” value in “GVS (hygroscopicity)” is listed as “hygroscopic”. In addition, in the series “GVS (hygroscopicity)” (0-80% RH), the “GVS mass change between 0 and 80% RH” value is “Only 1.0% mass”.
On to Psilocin tartrate, for which the “Static Storage 40° C./75% RH: XRPD” value in series [3] is on record as “TAR Pattern 4”.
For the molecule Psilocin tartrate [TAR Pattern 1], in series [1], the IDR was 6.9 mg/min/cm2 and the “IDR (in words)” value is listed as “second highest IDR”. Moreover, in the series “GVS (hygroscopicity)”, the “GVS hygroscopicity (in words)” value is listed as “Slightly Hygroscopic” and the “GVS reversible mass change between 0-90% RH” value is recorded as “Reversible 1.4%”. Besides, the “pH at 5 hrs” value in series [2] (setting [4]) came to 3.4. Besides, in series [2] (Table 10 (updated), saline), the “pH at 5 hrs” value is reported as 3.5.
